Measurements taken from patent US7915420B2, “Aryl piperidine amides” (Janssen Pharmaceutica NV, priority 2003, dated 2011).

Biological target: T1, human glycine transporter-2 (GlyT2) (Homo sapiens, UniProt Q9Y345)
T1 construct: The entire coding region of the human GlyT2 cDNA was cloned into the mammalian expression vector pCINeo; expressed in transfected cells; host or cells: Cos-7 cells (African green monkey kidney), stably transfected, vector pCINeo, G418 selection
T1 sequence (Q9Y345 1-797): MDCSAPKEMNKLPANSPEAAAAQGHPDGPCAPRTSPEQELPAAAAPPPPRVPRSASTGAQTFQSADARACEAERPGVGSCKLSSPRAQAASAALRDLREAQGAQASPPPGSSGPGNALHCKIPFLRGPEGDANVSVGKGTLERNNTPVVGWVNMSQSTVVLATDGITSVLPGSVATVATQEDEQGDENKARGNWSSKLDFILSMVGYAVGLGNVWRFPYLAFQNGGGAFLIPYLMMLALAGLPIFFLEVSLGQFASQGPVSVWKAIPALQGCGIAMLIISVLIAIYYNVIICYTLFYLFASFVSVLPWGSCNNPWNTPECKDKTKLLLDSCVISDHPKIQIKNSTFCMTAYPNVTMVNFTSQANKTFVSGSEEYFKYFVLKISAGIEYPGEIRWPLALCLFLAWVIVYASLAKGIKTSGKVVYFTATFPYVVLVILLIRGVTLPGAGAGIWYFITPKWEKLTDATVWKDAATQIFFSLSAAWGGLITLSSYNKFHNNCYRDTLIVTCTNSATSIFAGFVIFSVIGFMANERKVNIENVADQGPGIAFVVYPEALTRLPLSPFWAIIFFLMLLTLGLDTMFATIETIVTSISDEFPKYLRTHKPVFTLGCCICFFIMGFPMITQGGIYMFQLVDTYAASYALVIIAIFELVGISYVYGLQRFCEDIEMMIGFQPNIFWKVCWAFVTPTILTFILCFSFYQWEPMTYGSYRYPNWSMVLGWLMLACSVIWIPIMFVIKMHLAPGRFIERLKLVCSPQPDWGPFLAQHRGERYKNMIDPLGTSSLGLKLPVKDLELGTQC
Assay: GlyT2 inhibitory activity: inhibition of [14C]-glycine uptake in COS-7 cells transfected with human GlyT2
Assay type: cell-based
Details: Cos-7 cells stably transfected with human GlyT2; 20 μM 14C-glycine, 2 h at 37° C.
Experimental: GlyT2 antagonist activity of representative compounds of the invention was determined in accordance with the assay described in the Examples and by measuring the ability of compounds to inhibit the uptake of [^14C]-glycine in COS-7 cells transfected with the human glycine transporter-2 (GlyT2). The GlyT2 antagonist activities of these representative compounds are set forth hereinafter in Table 1.
Cos-7 cells (African green monkey, kidney) from American Type Culture Collection were grown in DMEM supplemented with 10% fetal bovine serum. The entire coding region of the human GlyT2 cDNA was cloned into the mammalian expression vector pCINeo, and then stably transfected into Cos-7 cells. Transfection was performed essentially as described by T. W. Lovenberg et al. (Mol. Pharmacol. 1999, 55:1101-1107). Cells are grown to 70-80% confluence, removed from the plate with trypsin, and pelleted in a clinical centrifuge. The pellet is resuspended in 400 μL complete medium and transferred to an electroporation cuvette with a 0.4 cm gap between the electrodes (Bio-Rad, 165-2088). One microgram of supercoiled GlyT2 cDNA is added to the cells, and the suspension is mixed. The voltage for the electroporation is set at 0.25 kV, and the capacitance is set at 960 μF. After electroporation, the cuvette contents are diluted to 10 mL with complete medium, and 0.5 mL, 1.0 mL, 2.0 mL and remainder (−6.5 mL) portions are plated onto four 10-cm dishes. The cells are incubated 24 h before adding 600 μg/mL G418. Colonies that survive selection are isolated and tested for GlyT2 expression.
The day before the assay, the GlyT2 expressing cells were plated into 96-well scintillating microplates (Amersham, RPNQ 0160) at a density of approximately 20,000 cells per well. Cells were grown overnight at 37° C. in 5% CO2 and then washed once with 37° C. HEPES buffered saline (HBS: 150 mM NaCl, 20 mM HEPES, 1 mM CaCl2, 10 mM glucose, 5 mM KCl, 1 mM MgCl2; pH 7.4). Eighty microliters of 37° C. HBS was subsequently added to each well. Test solutions of GlyT2 inhibitors were prepared in HBS from DMSO stock solutions, and 5 μL of test solution was added to each test well. Total transport and non-specific background were determined by adding 5 μL HBS or 5 μL 2 M glycine, respectively, to the appropriate control wells. Plates were then left at room temperature for 5 min before the addition of 20 μL of 100 μM ^14C-glycine (NEN, NEC 048H) to each well for a final concentration of 20 μM. Plates were incubated for 2 h at 37° C. with 5% CO2. After 2 h the reaction mixtures were removed by aspiration, and the plates were washed once with ice-cold HBS. Plates were sealed with TopSeal (Packard, 6005185) and counted on a Packard TopCount® scintillation counter.

| IC50 | Structure (SMILES) |
| --- | --- |
| 3 µM | CCC(CC)Oc1ccccc1NCCNCc1cccc(C(=O)N2CCCCC2)c1 [Example 6, [3-({2-[2-(1-Ethyl-propoxy)-phenylamino]-ethylamino}-methyl)-phenyl]-piperidin-1-yl-methanone] |
| 3.1 µM | CC(C)Oc1ccccc1NCCNCc1cc(C(=O)N2CCCCC2)cs1 [Example 34, (5-{[2-(2-Isopropoxy-phenylamino)-ethylamino]-methyl}-thiophen-3-yl)-piperidin-1-yl-Methanone] |
| 1.2 µM | O=C(c1cccc(CNCCNc2ccccc2Cl)c1)N1CCCCC1 [Example 19, (3-{[2-(2-Chloro-phenylamino)-ethylamino]-methyl}-phenyl)-piperidin-1-yl-methanone] |
| 5 µM | O=C(c1cccc(CNCCNc2ccccc2[N+](=O)[O-])c1)N1CCCCC1 [Example 11, (3-{[2-(2-Nitro-phenylamino)-ethylamino]-methyl}-phenyl)-piperidin-1-yl-methanone] |
| 4 µM | CC(C)Oc1ccccc1NCCCNCc1cccc(C(=O)N2CCCCC2)c1 [Example 2, (3-{[3-(2-Isopropoxy-phenylamino)-propylamino]-methyl}-phenyl)-piperidin-1-yl-methanone] |
| 0.4 µM | CC(C)Oc1ccccc1OCCCNCc1cccc(C(=O)N2CCCCC2)c1 [Example 25, (3-{[3-(2-Isopropoxy-phenoxy)-propylamino]-methyl}-phenyl)-piperidin-1-yl-methanone] |
| 3.1 µM | O=C(c1cccc(CNCCNc2cccc(Cl)c2)c1)N1CCCCC1 [Example 20, (3-{[2-(3-Chloro-phenylamino)-ethylamino]-methyl}-phenyl)-piperidin-1-yl-methanone] |
| 3 µM | O=C(c1cccc(CNCCNc2ccccc2Oc2ccccc2)c1)N1CCCCC1 [Example 8, (3-{[2-(2-Phenoxy-phenylamino)-ethylamino]-methyl}-phenyl)-piperidin-1-yl-methanone] |
| 1 µM | CC(C)Oc1cccc(NCCN(C)Cc2cccc(C(=O)N3CCCCC3)c2)c1 [Example 30, [3-({[2-(3-Isopropoxy-phenylamino)-ethyl]-methyl-amino}-methyl)-phenyl]-piperidin-1-yl-methanone] |
| 0.4 µM | CC(C)Oc1ccccc1NCCNCc1cccc(C(=O)N2CCCCC2)c1 [Example 1, (3-{[2-(2-Isopropoxy-phenylamino)-ethylamino]-methyl}-phenyl)-piperidin-1-yl-methanone] |
| > 10 µM | O=C(c1cccc(CNCCNc2ccccc2)c1)N1CCCCC1 [Example 3, {3-[(2-Phenylamino-ethylamino)-methyl]-phenyl}-piperidin-1-yl-methanone] |
| 1.2 µM | O=C(c1cccc(CNCCNc2ccccc2OC2CCCC2)c1)N1CCCCC1 [Example 7, (3-{[2-(2-Cyclopentyloxy-phenylamino)-ethylamino]-methyl}-phenyl)-piperidin-1-yl-methanone] |
| 7.5 µM | CC(C)Oc1cccc(OCCNCc2cccc(C(=O)N3CCCCC3)c2)c1 [Example 26, (3-{[2-(3-Isopropoxy-phenoxy)-ethylamino]-methyl}-phenyl)-piperidin-1-yl-methanone] |
| > 10 µM | COc1ccccc1-c1ccccc1NCCNCc1cccc(C(=O)N2CCCCC2)c1 [Example 22, (3-{[2-(2′-Methoxy-biphenyl-2-ylamino)-ethylamino]-methyl}-phenyl)-piperidin-1-yl-methanone] |
| 2.5 µM | COc1ccccc1NCCNCc1cccc(C(=O)N2CCCCC2)c1 [Example 5, (3-{[2-(2-Methoxy-phenylamino)-ethylamino]-methyl}-phenyl)-piperidin-1-yl-methanone] |
| 3.1 µM | O=C(NCc1ccccc1)Nc1ccccc1NCCNCc1cccc(C(=O)N2CCCCC2)c1 [Example 16, 1-Benzyl-3-(2-{2-[3-(piperidine-1-carbonyl)-benzylamino]-ethylamino}-phenyl)-urea] |
| > 10 µM | CC(C)Oc1ccccc1N(C)CCN(C)Cc1cccc(C(=O)N2CCCCC2)c1 [Example 29, {3-[({2-[(2-Isopropoxy-phenyl)-methyl-amino]-ethyl}-methyl-amino)-methyl]-phenyl}-piperidin-1-yl-methanone] |
